The values below come from US7767685B2, “Adenosine A2B receptor antagonists” (King Pharmaceuticals Research and Development, Inc., priority 2006, dated 2010).

The target in test [1] is T1, human A2A adenosine receptors (Homo sapiens, UniProt P29274).
T1 construct: expressed in transfected cells; host or cells: CHO cells (membranes)
Briefly: Displacement of [3H]ZM241385 binding at human A2A adenosine receptors expressed in CHO cells. To be noted: [3H]ZM241385 displacement, n = 3-6, geometric mean (95% confidence limits), read-out: Ki hA2A. Here is the method:
The human adenosine receptors have been transfected in CHO cells according with the method previously described by Klotz et al. (Naunyn-Schmied. Arch Pharm. 1998, 357: 1-9). Briefly, the cells are grown adherently and maintained in Dulbecco's Modified Eagles Medium with nutrient mixture F12 (DMEM/F12) without nucleosides, containing 10% fetal calf serum, penicillin (100 U/mL), streptomycin (100 μg/mL), L-glutamine (2 mM) and Geneticin (G418, 0.2 mg/ml) at 37° C. in 5% CO2/95% air. For membrane preparation the culture medium is removed and the cells are washed with phosphate-buffered saline and scraped off T75 flasks in ice-cold hypo tonic buffer (5 mM Tris HCl, 1 mM EDTA, pH 7.4). The cell suspension is homogenized with Polytron, the homogenate is spun for 10 min at 1000×g and the supernatant is then centrifuged for 30 min at 100,000×g. The membrane pellet is suspended in 50 mM Tris HCl buffer (pH 7.4) for A1 adenosine receptors, in 50 mM Tris HCl, 10 mM MgCl2 (pH 7.4) for A2A adenosine receptors, in 50 mM Tris HCl, 10 mM MgCl2, 1 mM EDTA (pH 7.4) for A2B and A3 adenosine receptors.
All new synthesized compounds have been tested to evaluate their affinity to human A1, A2A, A2B and A3 adenosine receptors. Displacement experiments of [^3H]-DPCPX to CHO cells transfected with the human recombinant A1 adenosine receptors are performed for 120 min at 25° C. incubating diluted membranes (50 μg of protein/assay) and at least 6-8 different concentrations of examined antagonists (Varani et al., Mol. Pharmacol., 2000, 57: 968-975). Non-specific binding is determined in the presence of 10 μM of CHA and this is always ≦10% of the total binding. Binding of [^3H]-ZM 241385 to CHO cells transfected with the human recombinant A2A adenosine receptors is performed using a suspension of membranes (50 μg of protein/assay) and at least 6-8 different concentrations of studied antagonists for an incubation time of 60 min at 4° C. Non-specific binding is determined in the presence of 1 μM ZM 241385 and is about 20% of total binding. Competition binding experiments of [^3H]-MRE 2029F20 to CHO cells transfected with the human recombinant A2B adenosine receptors are carried out incubating for 120 min at 4° C. diluted membranes (50 μg of protein/assay) and at least 6-8 different concentrations of examined compounds. Non-specific binding is defined as binding in the presence of 1 μM MRE 3029F20 and is about 25% of total binding. Competition binding experiments of [^3H]-MRE 3008F20 to CHO cells transfected with the human recombinant A3 adenosine receptors^5 are carried out incubating for 120 min at 4° C. diluted membranes (50 μg of protein/assay) and at least 6-8 different concentrations of examined ligands. Non-specific binding is defined as binding in the presence of 1 μM MRE 3008F20 and is about 25% of total binding. Bound and free radioactivity are separated by filtering the assay mixture through Whatman GF/B glass fiber filters using a Micro-Mate 196 cell harvester (Packard Instrument Co.). The filter bound radioactivity is counted on a Top Count (efficiency 57%) with Micro-Scint 20.
The protein concentration is determined according to a Bio-Rad method (Bradford, Anal Biochem. 1976, 72: 248-254) with bovine albumin as a standard reference. Inhibitory binding constant, Ki, values are calculated from those of IC50 according to Cheng & Prusoff equation (Biochem. Pharmacol 1973, 22: 3099-3108): Ki=IC50/(1+[C*]/KD*) where [C*] is the concentration of the radioligand and KD* its dissociation constant. A weighted non linear least-squares curve fitting program LIGAND (Munson et al., Anal. Biochem 1980, 107: 220-239) is used for computer analysis of inhibition experiments Data are expressed as geometric mean with 95% confidence limits in parentheses. Examples of Animal Models

Test [2] has as its target T2, human A3 adenosine receptors (Homo sapiens, UniProt P0DMS8).
T2 construct: expressed in transfected cells; host or cells: CHO cells (membranes)
T2 sequence (P0DMS8 1-318): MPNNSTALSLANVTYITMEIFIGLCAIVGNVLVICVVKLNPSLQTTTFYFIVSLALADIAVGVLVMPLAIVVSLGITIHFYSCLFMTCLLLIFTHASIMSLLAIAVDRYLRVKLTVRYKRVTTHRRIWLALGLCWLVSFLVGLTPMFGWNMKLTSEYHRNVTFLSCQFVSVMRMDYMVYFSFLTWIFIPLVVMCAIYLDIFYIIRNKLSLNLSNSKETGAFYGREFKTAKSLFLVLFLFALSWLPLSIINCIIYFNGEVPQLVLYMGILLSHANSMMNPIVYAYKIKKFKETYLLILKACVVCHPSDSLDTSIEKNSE
Kind of test: Displacement of [3H]MRE3008F20 binding at human A3 adenosine receptors expressed in CHO cells. To be noted: [3H]MRE3008F20 displacement, n = 3-6 (footnote mark c/d swapped), geometric mean (95% confidence limits), read-out: Ki hA3. On the procedure: The human adenosine receptors have been transfected in CHO cells according with the method previously described by Klotz et al. (Naunyn-Schmied. Arch Pharm. 1998, 357: 1-9). Briefly, the cells are grown adherently and maintained in Dulbecco's Modified Eagles Medium with nutrient mixture F12 (DMEM/F12) without nucleosides, containing 10% fetal calf serum, penicillin (100 U/mL), streptomycin (100 μg/mL), L-glutamine (2 mM) and Geneticin (G418, 0.2 mg/ml) at 37° C. in 5% CO2/95% air. For membrane preparation the culture medium is removed and the cells are washed with phosphate-buffered saline and scraped off T75 flasks in ice-cold hypo tonic buffer (5 mM Tris HCl, 1 mM EDTA, pH 7.4). […]
All new synthesized compounds have been tested to evaluate their affinity to human A1, A2A, A2B and A3 adenosine receptors. […] Non-specific binding is determined in the presence of 10 μM of CHA and this is always ≦10% of the total binding. […] Non-specific binding is determined in the presence of 1 μM ZM 241385 and is about 20% of total binding. […] Bound and free radioactivity are separated by filtering the assay mixture through Whatman GF/B glass fiber filters using a Micro-Mate 196 cell harvester (Packard Instrument Co.). The filter bound radioactivity is counted on a Top Count (efficiency 57%) with Micro-Scint 20. […]

T1 sequence (P29274 whole entry): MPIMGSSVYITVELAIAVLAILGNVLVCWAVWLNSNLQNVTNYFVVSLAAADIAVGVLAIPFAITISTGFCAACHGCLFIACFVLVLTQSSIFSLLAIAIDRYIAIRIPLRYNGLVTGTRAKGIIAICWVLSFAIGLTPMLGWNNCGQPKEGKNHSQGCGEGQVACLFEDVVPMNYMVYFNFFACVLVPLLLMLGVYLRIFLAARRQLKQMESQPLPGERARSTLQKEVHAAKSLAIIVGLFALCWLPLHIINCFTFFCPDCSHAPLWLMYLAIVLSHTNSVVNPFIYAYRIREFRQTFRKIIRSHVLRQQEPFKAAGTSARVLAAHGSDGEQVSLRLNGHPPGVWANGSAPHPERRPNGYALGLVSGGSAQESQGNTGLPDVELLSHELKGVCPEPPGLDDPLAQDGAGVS

Take `CCCn1c(=O)c2[nH]c(-c3cc(C)n(CC(=O)Nc4cccc(OC)c4)n3)nc2n(CCC)c1=O` [Example 14, 2-[3-(2,6-Dioxo-1,3-dipropyl-2,3,6,7-tetrahydro-1H-purin-8-yl)-5-methyl-pyrazol-1-yl]-N-(3-methoxylphenyl)-acetamide]: in test [1], the Ki is more than 1000 nM.

Turning to `CCCn1c(=O)c2[nH]c(-c3cc(C)n(CC(=O)Nc4ccc(C)cc4)n3)nc2n(CCC)c1=O` [Example 17, 2-[3-(2,6-Dioxo-1,3-dipropyl-2,3,6,7-tetrahydro-1H-purin-8-yl)-5-methyl-pyrazol-1-yl]-N-p-tolyl-acetamide], the inhibition constant (Ki) in test [1] was more than 1000 nM.

`CCCn1c(=O)c2[nH]c(-c3ccn(CC(=O)Nc4ccc(Cl)cc4)n3)nc2n(CCC)c1=O` [Example 10, 2-[3-(2,6-Dioxo-1,3-dipropyl-2,3,6,7-tetrahydro-1H-purin-8-yl)-pyrazol-1-yl]-N-(4-chloro-phenyl)-acetamide]: the inhibition constant Ki in test [1] is more than 1000 nM.

Consider `CCCn1c(=O)c2[nH]c(-c3cc(C)n(CC(=O)Nc4ccc(C(C)CC)cc4)n3)nc2n(CCC)c1=O` (stereo not drawn) [Example 12, 2-[3-(2,6-Dioxo-1,3-dipropyl-2,3,6,7-tetrahydro-1H-purin-8-yl)-5-methyl-pyrazol-1-yl]-N-(4-sec-butylphenyl)-acetamide], for which the Ki in test [1] and in test [2] was more than 1000 nM in each case.

As to `CCCn1c(=O)c2[nH]c(-c3cc(C)n(CC(=O)Nc4ccc(OC)c(OC)c4)n3)nc2n(CCC)c1=O` [Example 8, 2-[3-(2,6-Dioxo-1,3-dipropyl-2,3,6,7-tetrahydro-1H-purin-8-yl)-5-methyl-pyrazol-1-yl]-N-(3,4-dimethoxyphenyl)-acetamide], the Ki in test [1] was more than 1000 nM.

Regarding `CCCn1c(=O)c2[nH]c(-c3cc(C)n(CC(=O)Nc4ccc(OC)cc4)n3)nc2n(CCC)c1=O` [Example 6, 2-[3-(2,6-Dioxo-1,3-dipropyl-2,3,6,7-tetrahydro-1H-purin-8-yl)-5-methyl-pyrazol-1-yl]-N-(4-methoxyphenyl)-acetamide], the inhibition constant (Ki) in test [1] is more than 1000 nM.

Turning to `CCCn1c(=O)c2[nH]c(-c3cc(C)n(CC(=O)Nc4ccccc4)n3)nc2n(CCC)c1=O` [Example 1, 2-[3-(2,6-Dioxo-1,3-dipropyl-2,3,6,7-tetrahydro-1H-purin-8-yl)-5-methyl-pyrazol-1-yl]-N-phenyl-acetamide], the inhibitory constant (Ki) in test [1] is more than 1000 nM.

Regarding `CCCn1c(=O)c2[nH]c(-c3cc(C)n(CC(=O)Nc4ccc(C)c(C)c4)n3)nc2n(CCC)c1=O` [Example 7, 2-[3-(2,6-Dioxo-1,3-dipropyl-2,3,6,7-tetrahydro-1H-purin-8-yl)-5-methyl-pyrazol-1-yl]-N-(3,4-dimethylphenyl)-acetamide], the Ki in test [1] was more than 1000 nM.

Consider `CCCn1c(=O)c2[nH]c(-c3cc(C)n(CC(=O)Nc4cccc(Cl)c4)n3)nc2n(CCC)c1=O` [Example 15, 2-[3-(2,6-Dioxo-1,3-dipropyl-2,3,6,7-tetrahydro-1H-purin-8-yl)-5-methyl-pyrazol-1-yl]-N-(3-chlorophenyl)-acetamide], for which, in test [1], the Ki was more than 1000 nM.

Consider `CCCn1c(=O)c2[nH]c(-c3cc(C)n(CC(=O)Nc4ccc(F)cc4)n3)nc2n(CCC)c1=O` [Example 5, 2-[3-(2,6-Dioxo-1,3-dipropyl-2,3,6,7-tetrahydro-1H-purin-8-yl)-5-methyl-pyrazol-1-yl]-N-(4-fluoro-phenyl)-acetamide], for which the Ki in test [1] is more than 1000 nM.

For `CCCn1c(=O)c2[nH]c(-c3nn(CC(=O)Nc4ccc(Cl)cc4)c(C)c3Cl)nc2n(CCC)c1=O` [Example 18, 2-[4-Chloro-3-(2,6-dioxo-1,3-dipropyl-2,3,6,7-tetrahydro-1H-purin-8-yl)-5-methyl-pyrazol-1-yl]-N-(4-chlorophenyl)-acetamide], the Ki in test [1] is more than 1000 nM.

Take `CCCn1c(=O)c2[nH]c(-c3cc(C)n(CC(=O)Nc4ccc(Cl)c(Cl)c4)n3)nc2n(CCC)c1=O` [Example 16, 2-[3-(2,6-Dioxo-1,3-dipropyl-2,3,6,7-tetrahydro-1H-purin-8-yl)-5-methyl-pyrazol-1-yl]-N-(3,4-dichlorophenyl)-acetamide]: the Ki in test [1] is more than 1000 nM.

As for `CCCn1c(=O)c2[nH]c(-c3nn(CC(=O)Nc4ccc(Cl)cc4)c(C)c3Br)nc2n(CCC)c1=O` [Example 19, 2-[4-Bromo-3-(2,6-dioxo-1,3-dipropyl-2,3,6,7-tetrahydro-1H-purin-8-yl)-5-methyl-pyrazol-1-yl]-N-(4-chlorophenyl)-acetamide], the inhibition constant Ki in test [1] was more than 1000 nM.

As to `CCCn1c(=O)c2[nH]c(-c3cc(C)n(CC(=O)Nc4ccc(I)cc4)n3)nc2n(CCC)c1=O` [Example 2, 2-[3-(2,6-Dioxo-1,3-dipropyl-2,3,6,7-tetrahydro-1H-purin-8-yl)-5-methyl-pyrazol-1-yl]-N-(4-iodophenyl)-acetamide], the inhibitory constant (Ki) in test [1] is more than 1000 nM.
